This is an account of results in patent US7323489B2, “Proline ester and preparation containing the same for percutaneous administration” (Toaeiyo Ltd., priority 2002, dated 2008).

Data set [1] can be described thus: Stability test (storage in isopropyl myristate, HPLC peak area ratio). The data set is classed as physicochemical. The procedure:
About 5 mg of each of Inventive Compounds 1 to 5 and enalapril was put in a glass vial. Isopropyl myristate (100 μL) was added, to thereby yield a solution (or suspension). The vial was tightly sealed and stored in a 60° C. thermostatic chamber for one week. Methanol was added to the solution contained in the vial until the total volume of the solution mixture became 100 mL. The resultant solution was employed as a test solution to be subjected to an HPLC analysis. Peak area ratio (expressed by percentage) of each compound with respect to a sum of all the obtained peak areas was calculated.

Data set [2] concerns three-dimensional cultured human skin model (LSE-high, Toyobo Co., Ltd.). The data set is described as follows: Metabolism test by use of cultured human skin. In kind it is in vitro ADME. Conditions: receptor phase PBS pH 7.4, 24 hours, 1.0 mass % in isopropyl myristate, 200 μL applied, 37° C. The protocol:
A sample of a three-dimensional cultured human skin model (LSE-high, Toyobo Co., Ltd.) was set in a vertical diffusion cell whose temperature was maintained at 37° C., and the receptor phase of the cell was filled with 7 mL isotonic phosphate buffer (PBS, pH 7.4). The cell was allowed to stand for one hour. Each of Inventive Compounds 1 to 3 and enalapril (serving as a Comparative Example) was dissolved or suspended in isopropyl myristate so as to attain a concentration of 1.0 mass %. The solution (200 μL) was applied to the skin sample, whereby the test started. When 24 hours had passed after the test started, the concentrations of proline esters or enalapril (i.e., a prodrug of enalaprilat) which remained unchanged, and the transformed product enalaprilat contained in PBS in the receptor phase were determined through HPLC. From the obtained data, concentration ratio of “proline esters or enalapril”: “enalaprilat” was calculated (presence ratio).

The conditions of data set [3]: in the skin and in the plasma; cited from earlier work.
[4] abbreviates: storage at 60° C. for 1 week, HPLC peak area ratio.

Regarding `C[C@H](N[C@@H](CCc1ccccc1)C(=O)O)C(=O)N1CCC[C@H]1C(=O)OCCCCO` [Inventive Compound 3, 1-[N-[(1S)-1-Carboxy-3-phenylpropyl)-L-alanyl]-L-proline 4-hydroxybutyl ester], in data set [1] (setting [4]), the “Area ratio: Closed ring product” value is 0.0%, the “Area ratio: Enalaprilat” value came to 0.0% and the “Area ratio: Proline ester compound” value is recorded as 94.4%. Also, the “Presence ratio: proline ester or enalapril (unchanged) part of concentration ratio” value in data set [2] amounted to 30.4.
`C[C@H](N[C@@H](CCc1ccccc1)C(=O)O)C(=O)N1CCC[C@H]1C(=O)OCCCO` [Inventive Compound 2, 1-[N-[(1S)-1-Carboxy-3-phenylpropyl]-L-alanyl]-L-proline 3-hydroxypropyl ester]: in data set [1] (setting [4]), the “Area ratio: Closed ring product” value stood at 0.0%, the “Area ratio: Enalaprilat” value came to 0.0% and the “Area ratio: Proline ester compound” value is given as 96.7%. Further, in data set [2], the “Presence ratio: proline ester or enalapril (unchanged) part of concentration ratio” value turned out to be 36.3.
Take `COCCOCCOC(=O)[C@@H]1CCCN1C(=O)[C@H](C)N[C@@H](CCc1ccccc1)C(=O)O` [Inventive Compound 5, 1-[N-[(1S)-1-Carboxy-3-phenylpropyl]-L-alanyl]-L-proline 2-(2-methoxyethoxy)ethyl ester]: in data set [1] (setting [4]), the “Area ratio: Closed ring product” value is 0.0%, the “Area ratio: Enalaprilat” value is listed as 0.0% and the “Area ratio: Proline ester compound” value came out at 94.2%.
Regarding `CCOC(=O)[C@H](CCc1ccccc1)N[C@@H](C)C(=O)N1CCC[C@H]1C(=O)O` [Enalapril, reference compound], the “Stability on storage (in words)” value in data set [1] (60° C., one week) is listed as “completely degraded”. In addition, in data set [1] (setting [4]), the “Area ratio: Closed ring product” value amounted to 48.4%, the “Area ratio: Enalapril” value is 0.0% and the “Area ratio: Enalaprilat” value is 0.0%. Further, the “Presence ratio: proline ester or enalapril (unchanged) part of concentration ratio” value in data set [2] turned out to be 98.8. Further, the “Conversion of percutaneously absorbed enalapril to enalaprilat (in words)” value in data set [3] is listed as “not converted to enalaprilat”.
On to `COCCOC(=O)[C@@H]1CCCN1C(=O)[C@H](C)N[C@@H](CCc1ccccc1)C(=O)O` [Inventive Compound 4, 1-[N-[(1S)-1-Carboxy-3-phenylpropyl]-L-alanyl]-L-proline 2-methoxyethyl ester], for which, in data set [1] (setting [4]), the “Area ratio: Closed ring product” value was determined as 0.0%, the “Area ratio: Enalaprilat” value is reported as 0.0% and the “Area ratio: Proline ester compound” value turned out to be 99.1%.
Regarding `C[C@H](N[C@@H](CCc1ccccc1)C(=O)O)C(=O)N1CCC[C@H]1C(=O)OCCO` [Inventive Compound 1, 1-[N-[(1S)-1-Carboxy-3-phenylpropyl]-L-alanyl]-L-proline 2-hydroxyethyl ester], in data set [1] (setting [4]), the “Area ratio: Closed ring product” value is 0.0%, the “Area ratio: Enalaprilat” value was determined as 0.0% and the “Area ratio: Proline ester compound” value amounted to 91.8%. In data set [2], the “Presence ratio: proline ester or enalapril (unchanged) part of concentration ratio” value was found to be 23.5.
